How the values were obtained:
A375 cells = test: A375 Crystal Violet (CV) Proliferation Assay [Assay 5]; format: cell-based; settings: A-375, 96 h; A375 human melanoma cells (BRAF V600E), crystal violet staining, 4 days incubation
Description: Assay 5: A375 Crystal Violet (CV) Proliferation Assay:
Cell proliferation for A375 cells [human melanoma cell line, expressing mutant BRAF V600E] was measured by crystal violet (CV) staining: Cultivated human A375 cells were plated out in a density of 1500 cells/measurement point in 200 μl of growth medium (DMEM/HAMS F12 with 10% FBS and 2 mM Glutamine) in a 96-well multititer plate. After 24 hours, the cells from a plate (zero plate) were stained with crystal violet (see below), while the medium in the other plates was replaced by fresh culture medium (200 μl) to which the test substances had been added in various concentrations (0 μM, and in the range 0.3 nM-30 μM; the final concentration of the solvent dimethyl sulphoxide was 0.5%). The cells were incubated in the presence of the test substances for 4 days. The cell proliferation was determined by staining the cells with crystal violet: the cells were fixed by adding 20 μl/measurement point of an 11% glutaraldehyde solution at room temperature for 15 min. After the fixed cells had been washed three times with water, the plates were dried at room temperature. The cells were stained by adding 100 μl/measurement point of a 0.1% crystal violet solution (pH adjusted to pH 3 by adding acetic acid). After the stained cells had been washed three times with water, the plates were dried at room temperature. The dye was dissolved by adding 100 μl/measurement point of a 10% acetic acid solution, and the extinction was determined by photometry at a wavelength of 595 nm. The percentage change in cell growth was calculated by normalizing the measurements to the extinctions of the zero point plate (=0%) and the extinction of the untreated (0 μM) cells (=100%). The IC50 values were determined by means of a 4-parameter fit using the company's own software.

colon cancer = settings: oral treatment, mouse models, literature [18]; cited from earlier work
MEK1/2 = MEK1/2 inhibitor, literature [17]; cited from earlier work
HCT116 cells = test: HCT116 Cell Titer Glo (CTG) Proliferation Assay [Assay 1]; format: cell-based; settings: HCT-116, HCT116 human colorectal cells, 72 hours incubation
Description: Cell Titer Glo Proliferation Assay
The adherent tumor cell proliferation assay used to test the compounds of the present invention involves a readout called Cell Titre-Glo developed by Promega (Cunningham, BA “A Growing Issue: Cell Proliferation Assays. Modern kits ease quantification of cell growth” The Scientist 2001, 15(13), 26, and Crouch, S P et al., “The use of ATP bioluminescence as a measure of cell proliferation and cytotoxicity” Journal of Immunological Methods 1993, 160, 8 1-88).
Assay 1: HCT116 Cell Titer Glo (CTG) Proliferation Assay:
(§1) HCT116 cells [human colorectal cell line, expressing mutant […]] were plated at a density of 3000 cells/well in 96 well black-clear bottom tissue culture plates (Costar 3603 black/clear bottom) in 100 μl/well DMEM medium (DMEM/Ham's F12) with 10% Fetal Bovine Serum (FBS) and stable Glutamine incubated at 37° C. Sister wells were plated in separate plate for time zero determination. All plates were incubated overnight at 37° C. Take down time zero plate: 100 μl/well CTG solution (Promega Cell Titer Glo solution) were added to time zero wells in sister plate; the plates were mixed for 2 min on orbital shaker to ensure cell lysis, incubated for 10 minutes, luminescence was read on VICTOR 3 (Perkin Elmer). Twenty-four hours after cell seeding, test compounds were diluted in 50 μl medium and were added at a final concentration range from as high 10 μM to as low 300 pM depending on the activities of the tested compounds in serial dilutions at a final DMSO concentration of 0.4%. Cells were incubated for 72 hours at 37° C. after addition of the test compound. Then, using a Promega Cell Titer Glo Luminescent® assay kit, 100 μl microliter lysis buffer containing of the enzyme luciferase and its substrate, luciferin mixture, were added to each well and incubated for 10 min at room temperature in the dark to stabilize luminescence signal. The samples were read on VICTOR 3 (Perkin Elmer) using Luminescence protocol. The percentage change in cell growth was calculated by normalizing the measurements to the extinctions of the zero point plate (=0%) and the extinction of the untreated (0 μM) cells (=100%). The IC50 values were determined by means of a 4-parameter fit using the company's own software.

A549 cells = test: A549 Cell Titer Glo (CTG) Proliferation Assay [Assay 2]; format: cell-based; settings: A549 human non small cell lung cancer cells (K-Ras G12S), 72 hours incubation
Description: as §1
Assay 2: A549 Cell Titer Glo (CTG) Proliferation Assay:
A549 cells [human non small cell lung cancer cell line, expressing mutant K-Ras G12S] were seeded at a density of 2000 cells/well in 96 well black-clear bottom tissue culture plates (Costar 3603 black/clear bottom) in 100 μl/well DMEM medium (DMEM/Ham's F12) with 10% Fetal Bovine Serum (FBS) and stable Glutamine incubated at 37° C. Cell Titer Glo proliferation assays for A549 cells were performed with the same protocol as described afore for HCT116 cells.

Row | SMILES | IC50 (A375 cells) | IC50 (HCT116 cells) | IC50 (A549 cells) | colon cancer growth in vivo (colon cancer) | IC50 (MEK1/2)
1 | O=C(NOCC1CC1)c1ccc(F)c(F)c1Nc1ccc(I)cc1Cl [PD184352] |  |  |  | inhibit colon cancer growth | low nanomolar range
2 | CC(C)S(=O)(=O)Nc1cccc(Oc2cncc(Nc3ccc(I)cc3F)c2C(N)=O)c1 [Example 4, 3-[(2-fluoro-4-iodophenyl)amino]-5-{3[(isopropylsulfonyl)amino]phenoxy}isonicotinamide] | 0.000411 µM | 0.0111 µM | 0.0143 µM |  | 
3 | NC(=O)c1c(Nc2ccc(I)cc2F)cncc1Oc1ccc2oc(=O)[nH]c2c1 [Example 1, 3-[(2-fluoro-4-iodophenyl)amino]-5-[(2-oxo-2,3-dihydro-1,3-benzoxazol-5-yl)oxy]isonicotinamide] | 0.00231 µM | 0.045 µM | 0.059 µM |  | 
4 | NC(=O)c1c(Nc2ccc(I)cc2F)cncc1Oc1cccc(N)c1 [Example 3, 3-(3-aminophenoxy)-5-[(2-fluoro-4-iodophenyl)amino]isonicotinamide] | 0.000676 µM | 0.214 µM | 0.377 µM |  | 
5 | CS(=O)(=O)Nc1cccc(Oc2cncc(Nc3ccc(I)cc3F)c2C(N)=O)c1 [Example 5, 3-[(2-fluoro-4-iodophenyl)amino]-5-{3-[(methylsulfonyl)amino]phenoxy}isonicotinamide] | 0.000775 µM | 0.0188 µM | 0.0227 µM |  | 

More lines, main results first:

Row | IC50 (A375 cells) | IC50 (HCT116 cells) | IC50 (A549 cells) | SMILES | colon cancer growth in vivo (colon cancer) | IC50 (MEK1/2)
6 | 0.0333 µM |  |  | CC(C)(O)C(O)CCOc1cncc(Nc2ccc(I)cc2F)c1C(N)=O (stereo not shown) [Example 12, 3-[(3,4-dihydroxy-4-methylpentyl)oxy]-5-[(2-fluoro-4-iodophenyl)amino]isonicotinamide] |  | 
7 | 0.118 µM |  |  | COc1cncc(Nc2ccc(I)cc2F)c1C(N)=O [Example 15, 3-[(2-fluoro-4-iodophenyl)amino]-5-methoxyisonicotinamide] |  | 
8 | 0.00492 µM | 0.195 µM | 0.335 µM | CC(=O)Nc1cccc(Oc2cncc(Nc3ccc(I)cc3F)c2C(N)=O)c1 [Example 8, 3-(3-acetamidophenoxy)-5-[(2-fluoro-4-iodophenyl)amino]isonicotinamide] |  | 
9 | 0.00125 µM | 0.0336 µM | 0.0498 µM | C#Cc1ccc(Nc2cncc(Oc3cccc(NS(=O)(=O)CC)c3)c2C(N)=O)c(F)c1 [Example 14, 3-{3-[(ethylsulfonyl)amino]phenoxy}-5-[(4-ethynyl-2-fluorophenyl)amino]isonicotinamide] |  | 
10 | 0.0215 µM | 1.12 µM | 1.67 µM | CC(C)C(=O)Nc1cccc(Oc2cncc(Nc3ccc(I)cc3F)c2C(N)=O)c1 [Example 10, 3-[(2-fluoro-4-iodophenyl)amino]-5-[3-(isobutyrylamino)phenoxy]isonicotinamide] |  | 
11 | 0.0152 µM | 0.00971 µM | 0.017 µM | NC(=O)c1c(Nc2ccc(I)cc2F)cncc1Oc1cccc(NS(=O)(=O)C2CC2)c1 [Example 7, 3-{3-[(cyclopropylsulfonyl)amino]phenoxy}-5-[(2-fluoro-4-iodophenyl)amino]isonicotinamide] |  | 
12 | 0.0088 µM | 0.44 µM | 0.882 µM | CCC(=O)Nc1cccc(Oc2cncc(Nc3ccc(I)cc3F)c2C(N)=O)c1 [Example 9, 3-[(2-fluoro-4-iodophenyl)amino]-5-[3-(propionylamino)phenoxy]isonicotinamide] |  | 
13 | 0.0153 µM | 0.011 µM | 0.0148 µM | CCS(=O)(=O)Nc1cccc(Oc2cncc(Nc3ccc(I)cc3F)c2C(N)=O)c1 [Example 6, 3-{3-[(ethylsulfonyl)amino]phenoxy}-5-[(2-fluoro-4-iodophenyl)amino]isonicotinamide] |  | 

— patent US9045429B2, “Substituted phenoxypyridines” (Bayer Intellectual Property GmbH, priority 2010, dated 2015)
